# Values of other authors, collected in patent US20090215859A1, “Compositions and methods for modulating dhr96” (priority 2004, published 2009).
# What was measured:
# [1] = target: T1, GAL4-USP fusion protein (Drosophila melanogaster, UniProt P20153+P34021); conditions: dependent on its EcR partner; cited from earlier work
# T1 construct: host or cells: tissues dissected from transgenic Drosophila larvae
# T1 sequence (P20153 239-498 limits assumed): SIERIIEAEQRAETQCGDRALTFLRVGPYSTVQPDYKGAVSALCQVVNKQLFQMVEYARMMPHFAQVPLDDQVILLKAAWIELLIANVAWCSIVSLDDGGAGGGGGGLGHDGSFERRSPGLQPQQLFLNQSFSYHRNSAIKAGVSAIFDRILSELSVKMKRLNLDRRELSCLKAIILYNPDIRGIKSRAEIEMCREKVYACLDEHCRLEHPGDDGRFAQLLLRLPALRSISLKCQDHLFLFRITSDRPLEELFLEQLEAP
# T1 sequence (P34021 1-878): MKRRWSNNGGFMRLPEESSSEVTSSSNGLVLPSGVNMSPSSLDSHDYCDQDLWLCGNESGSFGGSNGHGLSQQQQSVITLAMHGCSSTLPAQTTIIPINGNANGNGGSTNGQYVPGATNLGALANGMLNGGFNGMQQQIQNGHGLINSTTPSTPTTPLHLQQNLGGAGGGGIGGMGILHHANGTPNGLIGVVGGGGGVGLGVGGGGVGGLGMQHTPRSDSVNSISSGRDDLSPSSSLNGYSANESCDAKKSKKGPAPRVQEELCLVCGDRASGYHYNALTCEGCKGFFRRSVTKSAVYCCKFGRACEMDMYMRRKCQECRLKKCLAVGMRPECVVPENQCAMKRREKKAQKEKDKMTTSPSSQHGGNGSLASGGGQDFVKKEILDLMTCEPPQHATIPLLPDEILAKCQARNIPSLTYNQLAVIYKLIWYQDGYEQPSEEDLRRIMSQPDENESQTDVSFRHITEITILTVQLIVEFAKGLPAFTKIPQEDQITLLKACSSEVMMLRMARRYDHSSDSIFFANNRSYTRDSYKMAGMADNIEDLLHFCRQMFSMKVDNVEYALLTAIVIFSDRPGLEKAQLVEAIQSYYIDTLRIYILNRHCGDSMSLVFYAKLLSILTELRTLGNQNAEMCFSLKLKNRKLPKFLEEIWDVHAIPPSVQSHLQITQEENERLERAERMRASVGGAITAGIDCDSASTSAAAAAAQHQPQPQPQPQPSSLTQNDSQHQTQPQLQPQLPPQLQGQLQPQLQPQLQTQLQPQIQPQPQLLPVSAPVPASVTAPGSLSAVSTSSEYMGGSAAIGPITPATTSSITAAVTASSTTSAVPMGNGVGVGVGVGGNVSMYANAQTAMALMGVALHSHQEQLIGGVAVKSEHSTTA
# [2] = tested on: DHR38; conditions: cultured larval organs; cited from earlier work
# [3] = target: T2, PXR (Homo sapiens, UniProt O75469); conditions: cited from earlier work
# T2 sequence (O75469 1-434): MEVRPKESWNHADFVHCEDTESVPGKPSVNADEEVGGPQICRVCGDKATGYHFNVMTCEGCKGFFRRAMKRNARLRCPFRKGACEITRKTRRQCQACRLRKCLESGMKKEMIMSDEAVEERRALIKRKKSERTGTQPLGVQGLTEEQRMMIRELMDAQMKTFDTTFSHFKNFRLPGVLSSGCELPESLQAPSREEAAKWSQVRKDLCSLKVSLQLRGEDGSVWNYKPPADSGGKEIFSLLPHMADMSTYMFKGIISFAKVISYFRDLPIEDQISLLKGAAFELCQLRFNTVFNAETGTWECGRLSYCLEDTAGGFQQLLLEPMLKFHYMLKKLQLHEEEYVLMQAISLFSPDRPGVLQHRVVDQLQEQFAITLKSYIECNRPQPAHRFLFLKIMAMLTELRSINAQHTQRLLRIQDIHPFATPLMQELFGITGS
SMILES,Activation of the GAL4-USP fusion protein [1],Activation of DHR38 in the GAL4-LBD system [2],Action on PXR [3]
CC(C)(O)CC[C@@H](O)[C@](C)(O)[C@H]1CC[C@@]2(O)C3=CC(=O)[C@@H]4C[C@@H](O)[C@@H](O)C[C@]4(C)[C@H]3CC[C@]12C [20-hydroxyecdysone],potent activator,not,
COc1cc2c(cc1O)CCN[C@]21CS[C@@H]2c3c(OC(C)=O)c(C)c4c(c3[C@H](COC1=O)N1[C@@H]2[C@H]2c3c(cc(C)c(OC)c3O)C[C@@H]([C@@H]1O)N2C)OCO4 [ecteinascidin-743],,,antagonist
